Source: patent US11713344B2 (DONG-A ST CO., LTD., priority 2017, dated 2023)

Columns and labels:
Human GLP-1 receptors = Human GLP-1 receptors (Homo sapiens, UniProt P43220); assay: GLP-1 receptor activation assay (CRE-luciferase reporter, CHO-K1)
Procedure: Then, the resulting increased luciferase activity was evaluated as a measurement of the effect on each receptor activation.
After 3 hours of transfection, medium was exchanged to Alpha Minimal Essential Medium (α-MEM) comprising 10% fetal bovine serum (FBS). Next day, the medium was exchanged to α-MEM comprising the analog of the present invention and 0.1% bovine serum albumin (BSA). After 6 hours, dual luciferase assay reagent was added in the same amount as the medium in which the cells were submerged, and firefly luciferase and Renilla luciferase activities were continuously measured. Firefly luciferase activity values were corrected against Renilla luciferase activity to yield transfection efficiency.

Human glucagon receptors = Human glucagon receptors (Homo sapiens, UniProt P47871); assay: Glucagon receptor activation assay (CRE-luciferase reporter, CHO-K1)
Chain of Human glucagon receptors (P47871 26-477): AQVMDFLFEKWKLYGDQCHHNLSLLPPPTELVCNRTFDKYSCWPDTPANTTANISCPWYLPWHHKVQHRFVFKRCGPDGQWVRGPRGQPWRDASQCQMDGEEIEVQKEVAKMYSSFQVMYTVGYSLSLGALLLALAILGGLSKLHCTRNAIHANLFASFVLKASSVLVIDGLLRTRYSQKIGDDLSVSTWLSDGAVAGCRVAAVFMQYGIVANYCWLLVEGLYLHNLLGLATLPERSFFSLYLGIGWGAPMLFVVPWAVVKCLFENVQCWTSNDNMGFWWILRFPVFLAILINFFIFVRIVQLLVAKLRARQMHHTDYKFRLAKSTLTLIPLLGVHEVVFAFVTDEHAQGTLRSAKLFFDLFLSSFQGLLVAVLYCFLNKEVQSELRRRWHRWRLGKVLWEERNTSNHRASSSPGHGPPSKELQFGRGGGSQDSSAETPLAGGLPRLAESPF

Chain of Human GLP-1 receptors (P43220 24-463): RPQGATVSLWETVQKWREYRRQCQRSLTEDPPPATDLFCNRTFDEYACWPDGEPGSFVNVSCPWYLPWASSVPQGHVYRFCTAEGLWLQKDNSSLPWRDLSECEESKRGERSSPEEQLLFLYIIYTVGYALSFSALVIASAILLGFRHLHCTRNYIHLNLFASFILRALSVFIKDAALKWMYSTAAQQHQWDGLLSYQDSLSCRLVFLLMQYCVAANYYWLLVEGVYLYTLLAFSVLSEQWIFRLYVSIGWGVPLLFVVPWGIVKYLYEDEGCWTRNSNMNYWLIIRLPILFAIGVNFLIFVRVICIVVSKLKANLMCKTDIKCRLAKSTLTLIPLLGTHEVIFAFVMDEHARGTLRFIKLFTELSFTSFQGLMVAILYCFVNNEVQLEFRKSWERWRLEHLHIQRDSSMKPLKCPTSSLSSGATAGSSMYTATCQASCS

Row | EC50 (Human GLP-1 receptors) [nM] | EC50 (Human glucagon receptors) [nM] | Structure (SMILES)
1 | < 0.01 | < 0.01 | CCCCCCCCCCCCCCCCCC(=O)N[C@@H](CCC(=O)NCCOCCOCC(=O)NCCOCCOCC(=O)NCCCC[C@H](NC(=O)[C@H](CC(=O)O)NC(=O)[C@H](CO)NC(=O)[C@@H](NC(=O)[C@H](Cc1ccccc1)NC(=O)[C@@H](NC(=O)CNC(=O)[C@H](CCC(N)=O)NC(=O)C(C)(C)NC(=O)[C@@H](N)Cc1c[nH]cn1)[C@@H](C)O)[C@@H](C)O)C(=O)N[C@@H](CO)C(=O)N[C@@H](CCCCN)C(=O)N[C@@H](Cc1ccc(O)cc1)C(=O)N[C@@H](CC(C)C)C(=O)N[C@@H](CC(=O)O)C(=O)NC(C)(C)C(=O)N[C@@H](CCCNC(=N)N)C(=O)N[C@@H](CCCNC(=N)N)C(=O)N[C@@H](C)C(=O)N[C@@H](CCC(N)=O)C(=O)N[C@@H](CC(=O)O)C(=O)N[C@@H](Cc1ccccc1)C(=O)N[C@H](C(=O)N[C@@H](CCC(N)=O)C(=O)N[C@@H](Cc1c[nH]c2ccccc12)C(=O)N[C@@H](CC(C)C)C(=O)N[C@@H](CCSC)C(=O)N[C@@H](CC(N)=O)C(=O)N[C@H](C(=O)N[C@@H](CCCCN)C(=O)O)[C@@H](C)O)C(C)C)C(=O)O [Compound 3]
2 | < 0.01 | < 0.01 | CCCCCCCCCCCCCCCCCC(=O)N[C@@H](CCC(=O)NCCOCCOCC(=O)NCCOCCOCC(=O)NCCCC[C@H](NC(=O)[C@H](CC(=O)O)NC(=O)[C@H](CO)NC(=O)[C@@H](NC(=O)[C@H](Cc1ccccc1)NC(=O)[C@@H](NC(=O)CNC(=O)[C@H](CCC(N)=O)NC(=O)C(C)(C)NC(=O)[C@@H](N)Cc1c[nH]cn1)[C@@H](C)O)[C@@H](C)O)C(=O)N[C@@H](CO)C(=O)N[C@@H](CCCCN)C(=O)N[C@@H](Cc1ccc(O)cc1)C(=O)N[C@@H](CC(C)C)C(=O)N[C@@H](CC(=O)O)C(=O)NC(C)(C)C(=O)N[C@@H](CCCNC(=N)N)C(=O)N[C@@H](CCCNC(=N)N)C(=O)N[C@@H](C)C(=O)N[C@@H](CCC(N)=O)C(=O)N[C@@H](CC(=O)O)C(=O)N[C@@H](Cc1ccccc1)C(=O)N[C@H](C(=O)N[C@@H](CCC(N)=O)C(=O)N[C@@H](Cc1c[nH]c2ccccc12)C(=O)N[C@@H](CC(C)C)C(=O)N[C@@H](CCSC)C(=O)N[C@@H](CC(N)=O)C(=O)N[C@H](C(=O)N[C@@H](CCCCN)C(N)=O)[C@@H](C)O)C(C)C)C(=O)O [Compound 6]
3 | < 0.01 | < 0.01 | CCCCCCCCCCCCCCCCCC(=O)N[C@@H](CCC(=O)NCCOCCOCC(=O)NCCOCCOCC(=O)NCCCC[C@H](NC(=O)[C@H](CC(=O)O)NC(=O)[C@H](CO)NC(=O)[C@@H](NC(=O)[C@H](Cc1ccccc1)NC(=O)[C@@H](NC(=O)CNC(=O)[C@H](CCC(N)=O)NC(=O)C(C)(C)NC(=O)[C@@H](N)Cc1c[nH]cn1)[C@@H](C)O)[C@@H](C)O)C(=O)N[C@@H](CO)C(=O)N[C@@H](CCCCN)C(=O)N[C@@H](Cc1ccc(O)cc1)C(=O)N[C@@H](CC(C)C)C(=O)N[C@@H](CC(=O)O)C(=O)NC(C)(C)C(=O)N[C@@H](CCCNC(=N)N)C(=O)N[C@@H](CCCNC(=N)N)C(=O)N[C@@H](C)C(=O)N[C@@H](CCC(N)=O)C(=O)N[C@@H](CC(=O)O)C(=O)N[C@@H](Cc1ccccc1)C(=O)N[C@H](C(=O)N[C@@H](CCC(N)=O)C(=O)N[C@@H](Cc1c[nH]c2ccccc12)C(=O)N[C@@H](CC(C)C)C(=O)N[C@@H](CCSC)C(=O)N[C@@H](CC(N)=O)C(=O)N[C@H](C(=O)N[C@@H](CCCCN)C(=O)N[C@@H](CCCNC(=N)N)C(=O)N[C@@H](CC(N)=O)C(=O)N[C@@H](CCCNC(=N)N)C(=O)N[C@@H](CC(N)=O)C(=O)N[C@@H](CC(N)=O)C(=O)N[C@H](C(=O)N[C@@H](C)C(=O)O)[C@@H](C)CC)[C@@H](C)O)C(C)C)C(=O)O [Compound 7]
